SMILES strings stand for the structures.

The nature of the data set: Human HepG2 cell viability assay in 384 well format. Format: toxicity, cell-based. The arrangement: dose 125 nL, time 70.5 hour; concentration not given beside the values. To be noted: HepG2 cells, read-out: Inhibition.
For the compound `O=C(N[C@@H]1CCCNC1)C1(Oc2ccc(Cl)cc2)CCNCC1`, the cytotoxicity at 70.5 h came to 13.1%.
The same measure for `O=C(c1cnco1)N1CCC(Cc2ccc3ncccc3c2)CC1`: 5.02%.
For the compound `CN(C)C(=O)CN1C[C@@H]2CC[C@H](C1)N(Cc1ccccc1C#N)C2`, the cytotoxicity at 70.5 h is -11%.
Take `c1csc(CN(Cc2ccsc2)CC2CCCO2)n1` (stereo unspecified): the cytotoxicity at 70.5 h is -1.84%.
Turning to `CC[C@@]1(O)CCN(C(=O)c2ccc(-c3ccco3)cc2)C[C@H]1O`, the cytotoxicity at 70.5 h is -5.37%.
Regarding `CC(CNC(=O)c1cc(N2CCNC2=O)ccc1F)c1ccccc1` (stereo unspecified), the cytotoxicity at 70.5 h is -6.76%.
For the compound `COc1cccc(CNc2c(C)nn(C(C)C)c2C)c1`, the cytotoxicity at 70.5 h was -2.2%.
In the case of `Cc1nc(CO[C@H]2CN(Cc3ccccn3)[C@@H]3CCCO[C@H]23)cs1`, the cytotoxicity at 70.5 h came out at 6.92%.
With `CCN1CCn2c(-c3cccc(F)c3)cnc2C12CCN(C(C)=O)CC2`, the cytotoxicity at 70.5 h is 2.55%.
The same measure for `O=C(c1ccc(Br)o1)N1CCCCC1Cn1cccn1` (stereo unspecified): -10.3%.
Turning to `COc1ccnc(NC(Cc2ccccc2)C(N)=O)n1` (stereo unspecified), the cytotoxicity at 70.5 h was -3.74%.
For the compound `CCCNC(=O)CN1CCN(Cc2csc(C(C)(C)C)n2)CC1`, the cytotoxicity at 70.5 h is 4.04%.
`CCCC(C)C(=O)N1CCC(n2cccc2C(=O)OC)CC1` (stereo unspecified): the cytotoxicity at 70.5 h was -2.08%.
The same measure for `Cc1nc2cc(-c3nccn3C)nn2c(N2CCCC2)c1C`: -0.486%.
In the case of `COc1ccc(Cl)cc1-n1cnc(CCNC(C)=O)c1`, the cytotoxicity at 70.5 h was -4.49%.
Take `Cc1ccc(CN(CCCn2ccnc2)Cc2cnc(N(C)C)nc2)s1`: the cytotoxicity at 70.5 h stood at 21.5%.
The same measure for `CN(C)c1ncccc1CNC(=O)NCCN(C)C1CCCC1`: -0.0535%.
Regarding `Cn1c(Cn2cccn2)nnc1C1CCCN(c2ccncc2F)C1` (stereo unspecified), the cytotoxicity at 70.5 h is 3.69%.
Turning to `CCc1noc(CN(CCc2ccccc2)C2CCN(C)CC2)n1`, the cytotoxicity at 70.5 h is 25.9%.
For `CN(CC(=O)NS(=O)(=O)c1cccs1)Cc1ccccc1`, the cytotoxicity at 70.5 h stood at 7.04%.
As to `CNCC(=O)Nc1ccc(-c2cnc(NCCS(C)(=O)=O)nc2)cc1`, the cytotoxicity at 70.5 h is -0.605%.
With `Cn1ncc2ccc(C3CCCN(Cc4ccsc4)C3)nc21` (stereo unspecified), the cytotoxicity at 70.5 h amounted to 7.16%.
`CC(=O)Nc1ccc(SCC(O)COCc2ccco2)cc1` (stereo unspecified): the cytotoxicity at 70.5 h was -12%.
Consider `CCC1(C)Cc2ccccc2-c2nc(NCCO)nc(O)c21` (stereo unspecified), for which the cytotoxicity at 70.5 h was -26.4%.
Turning to `O=C1NC2(CCN(C/C=C/c3ccccc3)CC2)CC1c1ccccc1` (stereo unspecified), the cytotoxicity at 70.5 h was 10.6%.
On to `Cc1ncsc1CCN(C)C(=O)c1c(O)cccc1O`, for which the cytotoxicity at 70.5 h was 10.9%.
As for `Cc1nccn1CCC1CCN(c2ccncn2)CC1`, the cytotoxicity at 70.5 h is -2.98%.
In the case of `O=C(NC1(c2nc(C3CC3)no2)CCCCC1)c1cccnc1O`, the cytotoxicity at 70.5 h came to 3.05%.
As for `CN(CCc1cn[nH]c1)Cc1nc(Cc2cccc(C(F)(F)F)c2)no1`, the cytotoxicity at 70.5 h is 3.03%.
In the case of `CCc1noc(CN2CCN(C(=O)Cc3ccc(F)cc3)CC2)n1`, the cytotoxicity at 70.5 h is -5.71%.
On to `Cc1cc(C)c(C(=O)Nc2cccc(CN3CCC(CO)CC3)c2)o1`, for which the cytotoxicity at 70.5 h was 4.26%.
Take `CCN(CCO)C[C@@H]1CN(c2nc(C)cc(C)n2)C[C@@H]1CO`: the cytotoxicity at 70.5 h is -2.32%.
Consider `COc1ccc(OC)c(C(=O)N(C)Cc2nnc3ccccn23)c1`, for which the cytotoxicity at 70.5 h was -15.1%.
For `O=C(CN1CCN(CC(O)C2CC2)CC1)NCc1ccc(F)cc1` (stereo unspecified), the cytotoxicity at 70.5 h was -0.525%.
With `Cc1ccccc1CN1CCC(NCC2CNc3ccnn3C2)CC1` (stereo unspecified), the cytotoxicity at 70.5 h came out at 0.228%.
Consider `CCNC(=O)NC(=O)C(C)N1CCCc2cc(OC)ccc2C1` (stereo unspecified), for which the cytotoxicity at 70.5 h was -10.4%.
Take `CC(C)NC(=O)[C@@H]1CN(Cc2nccs2)C[C@H]2OCC[C@H]21`: the cytotoxicity at 70.5 h was determined as 36%.
For the compound `Cc1ccc(S(=O)(=O)N2C[C@H]3C[C@H](NC(=O)c4cc(C)no4)[C@H]3C2)cc1`, the cytotoxicity at 70.5 h was -3.09%.
Regarding `O=C(CC1CC1)NCc1cc(=O)n2c(n1)CN(Cc1ccoc1)CCC2`, the cytotoxicity at 70.5 h was -5.33%.
For `O=C(c1cc(Cn2ccc3ccccc32)[nH]n1)N1CCC[C@H]1CO`, the cytotoxicity at 70.5 h is -0.0597%.
The same measure for `CC1(C)CC(N2Cc3nc(N)ncc3C2=O)CC(C)(C)N1`: -8%.
On to `Clc1ccc(CN2CCOC[C@H](Oc3cccnc3)C2)cc1`, for which the cytotoxicity at 70.5 h is -2.34%.
Under `CC[C@@H]1N(CC2CCC2)CCC[C@]12CCC(=O)N2Cc1ccncc1` stands -4.74%; under `Cc1noc(Cl)c1CCC(=O)N1CCc2sccc2C1`, -1.52%; under `Cc1nc(-c2ccccc2)c(C(=O)N2CCC3(CC(=O)NC3=O)C2)s1` (stereo unspecified), -6.69%.
In the case of `CC(Cn1cccn1)NC(=O)N1CCCN(Cc2cccs2)CC1` (stereo unspecified), the cytotoxicity at 70.5 h is -5.76%.
As to `NC(=O)C1CCN(C(=O)CSC2CCCc3ccccc32)CC1` (stereo unspecified), the cytotoxicity at 70.5 h was found to be 1.96%.
In the case of `COCc1cc(CNCc2c(C)n(CC(N)=O)c3ccccc23)n[nH]1`, the cytotoxicity at 70.5 h is -9.7%.
Under `N[C@@H]1CC[C@H](C(=O)NCCn2cc(Cl)cn2)C1` stands 3.97%.
With `COCC1c2nnn(CC3CC3)c2CCN1C(=O)c1cccn1C` (stereo unspecified), the cytotoxicity at 70.5 h turned out to be 9.68%.
As to `c1cnn(Cc2nnc3n2CCCN(c2nccs2)C3)c1`, the cytotoxicity at 70.5 h was found to be 12.8%.
Under `CN1CCN(C(=O)c2occc2CN2C(=O)Cc3ccccc32)CC1` stands 16%; under `c1ccc(Cc2noc(-c3ccc(NCC4CCCOC4)nc3)n2)cc1` (stereo unspecified), -2.44%; under `COc1ccc(C2=CCN(C(=O)C3CCC3)CC2)cc1`, -1.58%.
Under `c1cc(CN2CCOC3(CCCC3)C2)no1` stands -2.72%; under `O=C(Cc1cccc(F)c1F)N1CCOC(c2cccc(O)c2)C1` (stereo unspecified), -2.65%.
Under `CN(C)c1ncc(-c2cc(C(=O)NCCO)n(CC3CC3)c2)cn1` stands -6%; under `CO[C@H]1CC[C@H]2[C@H]1OCCN2C(=O)c1ccc(C)nc1`, -2.48%; under `COCCN1CCC(N(Cc2noc(C3CC3)n2)C(C)=O)C1` (stereo unspecified), 10.7%.
`Cc1cc(C)nc(NC2CC(=O)N(C)C2)n1` (stereo unspecified): the cytotoxicity at 70.5 h is -8.75%.
Under `O=C(NCc1cccs1)NCC(O)c1ccoc1` (stereo unspecified) stands -3.33%; under `Cc1ccc(CN(Cc2ccncc2)C2CCN(C)CC2)s1`, 15.5%.
The same measure for `COc1ccc(NC(=O)CSc2ccc3nncn3n2)c(OC)c1`: -15.9%.
Under `Nc1nccc(C2CN(Cc3ccc(-c4ccccc4C(=O)O)o3)C2)n1` stands 2.9%.
Regarding `Cn1ccc2ccc(C(=O)N3CC[C@@]4(O)CCCC[C@H]4C3)cc21`, the cytotoxicity at 70.5 h is 7.95%.
Consider `CN(Cc1cc(Br)cn1C)C(=O)c1cscn1`, for which the cytotoxicity at 70.5 h is -0.963%.
Regarding `CCC[C@H]1CN(CCS(C)(=O)=O)C[C@@H]1NC(=O)c1ccccc1F`, the cytotoxicity at 70.5 h is -2.49%.
As for `Cc1nnc(NCc2ccc(F)cc2)o1`, the cytotoxicity at 70.5 h was -2.93%.
In the case of `Cc1ccc(N(CC(=O)N2CCCCC2)C(=O)C2COCCO2)cc1` (stereo unspecified), the cytotoxicity at 70.5 h was -2.98%.
With `O=C(O)c1csc(S(=O)(=O)N2CCN(Cc3ccc(Cl)cc3)CC2)c1`, the cytotoxicity at 70.5 h is -12.5%.
The same measure for `CC(C)Cn1[nH]cc/c1=N\C(=O)CN1CCOC(Cn2cccn2)C1` (stereo unspecified): 21.5%.

For the origin of these results see ChEMBL document CHEMBL3507680, “University of Dundee, Gates Library screen for HepG2 cell viability”.
